Laboratory results reported in paper PMC6066528 (Frontiers in Pharmacology, 2018).

How the values were obtained:
CYP2D6 [1] = target: T1, CYP2D6 (Homo sapiens, UniProt P10635); settings: ref Johnson and Burlew, 1996; cited from earlier work
[2] = Metoprolol metabolism by human liver microsomes without inhibitor; assay type: in vitro ADME; settings: inhibition studies using human liver microsomes; mean ± 95%CI
Protocol: (§1) Microsomes and supersomes were stored at −80°C until used.
(§2) For inhibition studies, the reaction mixture was pre-incubated with the specific inhibitors (concentrations indicated in the figures) for 10 min prior to the addition of test compounds and NADPH. […] Following the incubation in the absence (control) or presence of inhibitors, the reactions were terminated at selected time-points by transferring 50 μL of the incubation mixture into a matrix autosampler vial, to which a threefold volume of ice-cold methanol (containing the internal standards) was added. […] The formation rate (pmol/min/pmol P450) in the absence and the presence of the inhibitors was calculated from the linear parts of the concentration-time curves and expressed as an absolute value or as a percentage relative to the control values.
(§3) Chromatographic separation was performed on a Shimadzu HPLC system (Shimadzu AG, Reinach, Switzerland), coupled to a triple quadrupole tandem mass spectrometer (API4000 or API5500, AB/MDS Sciex, Concord, Canada), operating in positive electrospray ionization mode.
(§4) The CYP activities were determined as the respective metabolite formation rates corresponding to the slope in the metabolite concentration versus time graphs.

[3] = cited from earlier work
[4] = target: recombinant human CYP3A4 supersomes (Homo sapiens, UniProt P08684)
Sequence of recombinant human CYP3A4 supersomes (P08684 whole entry): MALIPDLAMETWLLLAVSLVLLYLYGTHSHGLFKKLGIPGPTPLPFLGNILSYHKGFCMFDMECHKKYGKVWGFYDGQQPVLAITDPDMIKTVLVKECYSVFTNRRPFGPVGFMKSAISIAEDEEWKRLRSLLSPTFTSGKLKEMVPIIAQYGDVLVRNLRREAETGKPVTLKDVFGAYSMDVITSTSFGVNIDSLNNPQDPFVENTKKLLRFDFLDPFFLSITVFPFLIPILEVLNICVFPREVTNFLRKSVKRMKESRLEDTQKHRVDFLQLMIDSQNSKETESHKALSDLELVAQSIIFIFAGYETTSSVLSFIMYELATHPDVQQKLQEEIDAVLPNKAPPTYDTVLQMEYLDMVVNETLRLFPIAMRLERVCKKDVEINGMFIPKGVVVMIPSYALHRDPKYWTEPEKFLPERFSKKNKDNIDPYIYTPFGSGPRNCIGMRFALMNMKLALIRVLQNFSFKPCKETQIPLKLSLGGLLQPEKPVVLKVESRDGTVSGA
Protocol: as §1, §2, §3, §4

CYP2D6 mRNA [5] = assay: rt-PCR quantification of CYP2D6 mRNA in HepaRG cells after rifampicin; assay type: cell-based, human
Protocol: HepaRG cells were purchased from Biopredic International (Rennes, France) as undifferentiated cryopreserved cells with the associated medium. Freshly split HepaRG cells were seeded at 9000 cells/well in 96-well plates (or 0.05 × 10^6 cells/well in 24-well plates) and treated over the course of the next 4 weeks as previously described ([Aninat et al., 2006]).
(§5) A total of 350 μL of RLT buffer (Qiagen, Hombrechtikon, Switzerland) was used to lyse the respective liver cell models, after which the lysate was transferred to Qiashredder columns and centrifuged for 2 min at 13,000 rpm. From the eluate, total RNA was extracted and purified according to the manufacturer’s instructions (Qiagen, RNeasy mini extraction kit). The concentration of the extracted RNA was measured spectrophotometrically at 260 nm on a NanoDrop 2000 (Thermo Fisher Scientific, Wohlen, Switzerland). cDNA was reverse transcribed from the isolated RNA using the Qiagen omniscript system. For quantitative rt-PCR, 10 ng cDNA was used. […] Quantification of mRNA expression levels was performed using the comparative-threshold cycle method ([Livak and Schmittgen, 2001]).

CYP2D6 mRNA [6] = assay: rt-PCR quantification of CYP2D6 mRNA in primary human hepatocytes after rifampicin; assay type: cell-based; settings: primary human hepatocytes Lot #Hu8119; rifampicin 20 μM 48 h
Protocol: Primary cryopreserved human hepatocytes (Life Technologies, Lot #Hu8119 and Lot #Hu8124) were plated at 0.05 × 10^6 cells/well in collagen type-1 precoated 96-well plates (or 0.25 × 10^6 cells/well in 24-well plates) in William’s E medium supplemented with 10% FCS (v/v), 1% L-glutamine 200 mM (v/v), 1% Pen Strep (v/v), 0.1% dexamethasone 100 μM (v/v), and 0.1% insulin 100 μM (v/v), and then incubated at 37°C in the presence of 5% CO2 and 95% humid air.
as §5

CYP2D6 [7] = target: T1, CYP2D6; settings: primary human hepatocytes; without reaching statistical significance; ref Madan et al., 2003; cited from earlier work
[8] = system: primary human hepatocytes
Protocol: Experimental control culture wells were treated with solvent [DMSO, 0.1% (v/v)] alone. […] The bottoms of the wells were scraped using a pipette tip, after which the contents were transferred to an autosampler vial.
as §3, §4
For induction experiments, metabolite formation rates were determined as described above, and the fold change versus the basal conditions was calculated as the ratio of the metabolite formation rate in wells exposed to an inducer versus formation rates in control wells.

CYP2D6 [9] = target: T1, CYP2D6; parameters: Pooled human liver microsomes (HLM; Lot #38289); tissue Corning Life science Lot #38289; host or cells: pooled human liver microsomes; method as in Glaeser et al., 2005; settings: enterocytes of human subjects; 600 mg rifampicin for 10 days; without reaching statistical significance; ref Glaeser et al., 2005; cited from earlier work
CYP2D6 [10] = target: T1, CYP2D6; assay: Metoprolol metabolism by human liver microsomes with quinidine
Protocol: as §1, §2, §3, §4

beta-blocking activity = system: beta-blocking activity; parameters: method as in Regardh et al., 1974; settings: both active metabolites together; ref Regardh et al., 1974; cited from earlier work
[11] = In vivo assessment of CYP induction (Basel phenotyping cocktail before and after rifampicin); settings: 15 healthy volunteers, rifampicin 600 mg per day for 7 days
Protocol: We used the ratio between the induced and the basal state of the Cl/F of midazolam as a marker of CYP3A4 induction.
Experiments were carried out 5 times unless stated otherwise. Means were compared with the two-tailed Student’s t-test using GraphPad Prism 6.0 (GraphPad Software, San Diego, CA, United States). Data are presented as mean ± SD unless stated otherwise. Induction levels above twofold with statistically significant differences (p < 0.05) were considered relevant.

CYP3A4 = assay: Metoprolol metabolism by human liver microsomes with ketoconazole; assay type: in vitro ADME; settings: pooled human liver microsomes, pH 7.4, probe metoprolol 25 μM
Protocol: as §1, §2, §3, §4

T1 sequence (P10635 whole entry): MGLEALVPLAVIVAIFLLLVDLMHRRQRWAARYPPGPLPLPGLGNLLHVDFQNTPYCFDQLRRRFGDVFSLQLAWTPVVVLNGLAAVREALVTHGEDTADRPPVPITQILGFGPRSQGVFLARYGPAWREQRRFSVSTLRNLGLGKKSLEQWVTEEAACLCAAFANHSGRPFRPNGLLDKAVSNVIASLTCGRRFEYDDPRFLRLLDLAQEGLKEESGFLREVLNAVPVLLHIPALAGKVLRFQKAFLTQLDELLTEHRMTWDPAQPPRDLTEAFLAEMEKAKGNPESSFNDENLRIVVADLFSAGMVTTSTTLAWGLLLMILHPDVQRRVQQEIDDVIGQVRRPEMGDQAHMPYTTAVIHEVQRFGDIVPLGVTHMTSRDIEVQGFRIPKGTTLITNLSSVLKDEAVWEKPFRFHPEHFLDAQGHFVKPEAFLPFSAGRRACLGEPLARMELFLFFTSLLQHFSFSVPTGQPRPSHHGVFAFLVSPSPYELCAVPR

**Q.** Which results are given for `COCCc1ccc(OCC(O)CNC(C)C)cc1` (centres unmarked) [metoprolol]?
**A.** part of orally administered metoprolol metabolized by CYP2D6 (CYP2D6 [1]): Approximately 70%; contribution of CYP3A4, 2B6, and 2C9 together to N-dealkylation of metoprolol [2]: 7.6 ± 1.7%; contribution of CYP3A4, 2B6, and 2C9 together to O-demethylation of metoprolol [2]: 19.0 ± 2.6%; contribution of CYP3A4, 2B6, and 2C9 together to α-hydroxylation of metoprolol [2]: 4.0 ± 0.7%; bioavailability ([3]; oral, ref Regardh and Johnsson, 1980): approximately 50%

**Q.** Which conversion to dextrorphan ([4]; rhCYP3A4 supersomes, check for CYP2D6 activity, data not shown) does the source give for `COc1ccc2c(c1)[C@]13CCCC[C@@H]1[C@H](C2)N(C)CC3` [dextromethorphan] here?
**A.** not quantifiable

**Q.** What does the source list for `CO[C@H]1/C=C/O[C@@]2(C)Oc3c(C)c(O)c4c(O)c(c(/C=N/N5CCN(C)CC5)c(O)c4c3C2=O)NC(=O)/C(C)=C\C=C\[C@H](C)[C@H](O)[C@@H](C)[C@@H](O)[C@@H](C)[C@H](OC(C)=O)[C@@H]1C` [rifampicin]?
**A.** induction of CYP2D6 mRNA (CYP2D6 mRNA [5]; HepaRG cells, rifampicin 20 μM for 48 h): not induced; effect on CYP2D6 mRNA (CYP2D6 mRNA [5]; both cell models (HepaRG cells and primary human hepatocytes), 20 μM rifampicin): not affected; CYP2D6 mRNA expression levels (CYP2D6 mRNA [6]): no increase; increase of the activity of dextromethorphan O-demethylation (CYP2D6 [7]): 1.3 factor; increase in O-demethylation of metoprolol ([8]; primary human hepatocytes Lot #Hu8124, rifampicin 20 μM 48 h): 1.4 factor; increase in production of α-OH-metoprolol ([8]; primary human hepatocytes treated with rifampicin (Figure 3D, lot #Hu8124)): 75%; increase of CYP2D6 protein expression (CYP2D6 [9]): 1.6 factor

**Q.** With `C=C[C@H]1C[N@@]2CC[C@H]1C[C@@H]2[C@@H](O)c1ccnc2ccc(OC)cc12` [quinidine] as the compound, how does the “block of formation of the phenylacetate metabolite from O-demethylated metoprolol” value (CYP2D6 [10]; HLM, quinidine 1 μM) read?
**A.** blocked completely

**Q.** And the activity at 1 μM (CYP2D6 [10]; human, pooled human liver microsomes, pH 7.4, probe metoprolol 25 μM)?
**A.** 8%

**Q.** With `CCC1(c2ccccc2)C(=O)NC(=O)NC1=O` [phenobarbital] as the compound, how does the “increase of the activity of dextromethorphan O-demethylation” value (CYP2D6 [7]) read?
**A.** almost identical effect

**Q.** For `CC(C)NCC(O)COc1ccc(CCO)cc1` (centres unmarked) [O-demethylmetoprolol], which “contribution to the total beta-blocking activity of metoprolol” value (beta-blocking activity) is on record?
**A.** approximately 10%

**Q.** For `COCCc1ccc(OC[C@H](O)CNC(C)C)cc1` [R-metoprolol], which “clearance higher than that of S-metoprolol” value ([3]; human, in vivo) is on record?
**A.** 40%

**Q.** Which “clearance of midazolam after rifampicin” value ([11]; 2 mg midazolam, all subjects) does the source give for `Cc1ncc2n1-c1ccc(Cl)cc1C(c1ccccc1F)=NC2` [midazolam] here?
**A.** increase

**Q.** And the “formation of 1′-OH-midazolam from midazolam by CYP3A4 overexpressing supersomes” value ([4]; recombinant enzyme)?
**A.** rapid

**Q.** With `CC(=O)N1CCN(c2ccc(OCC3COC(Cn4ccnc4)(c4ccc(Cl)cc4Cl)O3)cc2)CC1` (centres unmarked) [ketoconazole] as the compound, how does the inhibition at 1 μM (CYP3A4) read?
**A.** 9.9 to 17.5%

**Q.** For `COCC(O)c1ccc(OCC(O)CNC(C)C)cc1` (stereo not drawn) [α-OH-metoprolol], which “contribution to the total beta-blocking activity of metoprolol” value (beta-blocking activity) is on record?
**A.** approximately 10%

**Q.** What about the “increase in α-OH-metoprolol formation / AUC after rifampicin” value ([11]; 12.5 mg metoprolol oral, statistically not significant) of the same compound?
**A.** 9%
